Experimental data as given in patent US10858360B2, “Tricyclic gyrase inhibitors” (priority 2011, dated 2020).
Converted amounts (≈) assume the structure as drawn.

Key:
Type in all cases: cell-based
[1] = test system: S. aureus ATCC 13709; assay: MIC, S. aureus ATCC 13709 (Alamar Blue broth microdilution); settings: for MIC Sa: S. aureus; for MIC: Staphylococcus aureus
[2] = test system: E. coli ATCC 25922; assay: MIC, E. coli ATCC 25922; settings: for MIC Ec: E. coli; for MIC: Escherichia coli
[3] = test system: S. pneumoniae ATCC 51916; assay: MIC, S. pneumoniae ATCC 51916; settings: Streptococcus pneumoniae, ATCC51916; Spn = S. pneumoniae
[4] = test system: P. aeruginosa ATCC 15692; assay: MIC, P. aeruginosa ATCC 15692; settings: Pseudomonas aeruginosa, ATCC15692; Pa = P. aeruginosa
[5] = test system: A. baumannii ATCC 19606; assay: MIC, A. baumannii ATCC 19606; settings: Acinetobacter baumannii, ATCC19606; Ab = A. baumannii; strain not given
[6] = test system: K. pneumoniae ATCC 700603; assay: MIC, K. pneumoniae ATCC 700603; settings: Klebsiella pneumoniae, ATCC700603, read-out: MIC Kpn
[7] = Alamar Blue read after overnight incubation at 35° C.
[8] = ATCC13709, S. aureus, Alamar Blue read after overnight incubation at 35° C.
[9] = ATCC25922, E. coli, Alamar Blue read after overnight incubation at 35° C.

CNc1cc(F)cc2c1[nH]c1nc(Oc3ccc(C#N)nc3)nc(N3CC4CCNC4C3)c12 (stereo not shown) [4.330]
MIC Sa [1, 7]: ≤0.5 µg/mL | MIC Ec [2, 7]: ≤0.5 µg/mL

CNc1cc(F)cc2c1[nH]c1nc(Oc3cnc(CO)nc3)nc(N3C[C@@H]4C[C@H]3C[C@@H]4N)c12 [4.391]
MIC [1, 8]: ≤ 0.5 µg/mL | MIC [2, 9]: ≤ 0.5 µg/mL

CNc1cc(F)cc2c1[nH]c1nc(Oc3cnc(SC)nc3)nc(N3CC4C[C@@H](N)C4C3)c12 (stereo partly shown) [4.201]
MIC [1, 8]: ≤ 0.5 µg/mL | MIC [2, 9]: ≤ 0.5 µg/mL

CNc1cc(F)cc2c1[nH]c1nc(Oc3cnc4ccc[n+]([O-])c4c3)nc(N3CC4(CCC4N)C3)c12 (stereo not shown) [4.342]
MIC Sa [1, 7]: ≤0.5 µg/mL | MIC Ec [2, 7]: 4 µg/mL (≈ 8.22 µM)

CNc1ccc(F)c2c1[nH]c1nc(Oc3cnc(N)nc3)nc(C3CC4C(N)C4C3)c12 (stereo not shown) [6.25]
MIC [1, 8]: ≤ 0.5 µg/mL | MIC [2, 9]: ≤ 0.5 µg/mL

CNc1cc(F)cc2c1[nH]c1nc(Oc3cnc4c(c3)OCCO4)nc(N3C[C@H](N)C4(CC4)C3)c12 [4.295]
MIC [1, 8]: ≤ 0.5 µg/mL | MIC [2, 9]: ≤ 0.5 µg/mL

CNc1cc(F)cc2c1[nH]c1nc(Oc3cnc(CC(=O)OC)nc3)nc(N3C[C@H](N)C4(CC4)C3)c12 [4.368]
MIC [1, 8]: ≤ 0.5 µg/mL | MIC [2, 9]: ≤ 0.5 µg/mL

CNc1cc(F)cc2c1[nH]c1nc(Oc3cncc(Cl)c3)nc(N3CCC4(C[C@H]4N)C3)c12 (stereo partly shown) [4.278]
MIC [1, 8]: ≤ 0.5 µg/mL | MIC [2, 9]: ≤ 0.5 µg/mL

CNc1cc(F)cc2c1[nH]c1nc(Oc3cnc(C4CCC4)nc3)nc(N3CC4C(N)C4C3)c12 (stereo not shown) [4.286]
MIC [1, 8]: ≤ 0.5 µg/mL | MIC [2, 9]: ≤ 0.5 µg/mL

CNc1cc(F)cc2c1[nH]c1nc(Oc3cnc(C)nc3)nc(N3C[C@@H]4[C@H](C3)[C@@]4(N)C(N)=O)c12 [4.160]
MIC [1, 8]: ≤ 0.5 µg/mL | MIC ([1]; ATCC13709, Sa = S. aureus): ≤ 0.5 µg/mL | MIC [3]: ≤ 0.5 µg/mL | MIC [2, 9]: 2 µg/mL (≈ 4.32 µM) | MIC ([2]; ATCC25922, Ec = E. coli, strain not given): 2 µg/mL (≈ 4.32 µM) | MIC [4]: > 16 µg/mL | MIC [5]: > 16 µg/mL | MIC [6]: > 16 µg/mL

CNc1cc(F)cc2c1[nH]c1nc(Oc3cncc(OC)c3)nc(N3CCC4CNC4C3)c12 (stereo not shown) [4.166]
MIC [1, 8]: ≤ 0.5 µg/mL | MIC [2, 9]: 2 µg/mL (≈ 4.45 µM)

CNc1cccc2c1[nH]c1nc(Sc3cnc4cccnc4c3)nc(N3CCN(C(=O)C4CCCO4)CC3)c12 (stereo not shown) [1.69]
MIC [1, 8]: ≤ 0.5 µg/mL | MIC [2, 9]: 8 µg/mL (≈ 14.8 µM)

CNc1cccc2c1[nH]c1nc(Oc3cncnc3)nc(N3CCN(Cc4ccccn4)CC3)c12 [3.54]
MIC [1, 8]: 8 µg/mL (≈ 17.1 µM) | MIC [2, 9]: > 32 µg/mL

CNc1cccc2c1[nH]c1nc(Oc3cncc(C#N)c3)nc(N3CCC4(CC4N)C3)c12 (stereo not shown) [3.40]
MIC [1, 8]: ≤ 0.5 µg/mL | MIC [2, 9]: 1 µg/mL (≈ 2.34 µM)

CNc1ncc(Oc2nc(N3CC4C(N)C4C3)c3c(n2)[nH]c2c(NC)cc(F)cc23)cn1 (stereo not shown) [4.218]
MIC [1, 8]: ≤ 0.5 µg/mL | MIC [2, 9]: ≤ 0.5 µg/mL

CNc1cc(F)cc2c1[nH]c1nc(Oc3cnc4cccnc4c3)nc(N3CC4CC[C@@H](N)[C@H]4C3)c12 (stereo partly shown) [4.047]
MIC [1, 8]: ≤ 0.5 µg/mL | MIC [2, 9]: ≤ 0.5 µg/mL

CNc1cc(F)cc2c1[nH]c1nc(Oc3cnc4c(c3)ncn4C)nc(N3CC4C[C@@H](N)C4C3)c12 (stereo partly shown) [4.227]
MIC [1, 8]: ≤ 0.5 µg/mL | MIC [2, 9]: 1 µg/mL (≈ 2.11 µM)

CNc1cc(F)cc2c1[nH]c1nc(Oc3cnc(C4CC4)nc3)nc(N3CC4CCNC4C3)c12 (stereo not shown) [4.250]
MIC Sa [1, 7]: ≤0.5 µg/mL | MIC Ec [2, 7]: ≤0.5 µg/mL

CNc1cc(F)cc2c1[nH]c1nc(Oc3cnc(C)nc3)nc(N3CC4(CC4N)C3)c12 (stereo not shown) [4.096]
MIC Sa [1, 7]: ≤0.5 µg/mL | MIC Ec [2, 7]: ≤0.5 µg/mL

CNc1cc(F)cc2c1[nH]c1nc(Oc3ccc(C4CC4)nc3)nc(N3CC(N)C4(CC4)C3)c12 (stereo not shown) [4.347]
MIC Sa [1, 7]: ≤0.5 µg/mL | MIC Ec [2, 7]: 1 µg/mL (≈ 2.18 µM)
